Reference: PMC3666588 (Journal of medicinal chemistry, 2013)
Entries after “also recorded” stand apart in the source; their conditions may differ. Read-outs that look alike come from different tables or passages of the source.

Key:
[1] = molecular target: T1, ERα (Homo sapiens, UniProt P03372); assay: ERα radioligand; format: binding; details: for ERα RBA: RBA = IC50 for E2 / IC50 for the test compound; for RBA for human ERs: text summary for human ERs (ERα and ERβ)
T1 sequence (P03372 1-595): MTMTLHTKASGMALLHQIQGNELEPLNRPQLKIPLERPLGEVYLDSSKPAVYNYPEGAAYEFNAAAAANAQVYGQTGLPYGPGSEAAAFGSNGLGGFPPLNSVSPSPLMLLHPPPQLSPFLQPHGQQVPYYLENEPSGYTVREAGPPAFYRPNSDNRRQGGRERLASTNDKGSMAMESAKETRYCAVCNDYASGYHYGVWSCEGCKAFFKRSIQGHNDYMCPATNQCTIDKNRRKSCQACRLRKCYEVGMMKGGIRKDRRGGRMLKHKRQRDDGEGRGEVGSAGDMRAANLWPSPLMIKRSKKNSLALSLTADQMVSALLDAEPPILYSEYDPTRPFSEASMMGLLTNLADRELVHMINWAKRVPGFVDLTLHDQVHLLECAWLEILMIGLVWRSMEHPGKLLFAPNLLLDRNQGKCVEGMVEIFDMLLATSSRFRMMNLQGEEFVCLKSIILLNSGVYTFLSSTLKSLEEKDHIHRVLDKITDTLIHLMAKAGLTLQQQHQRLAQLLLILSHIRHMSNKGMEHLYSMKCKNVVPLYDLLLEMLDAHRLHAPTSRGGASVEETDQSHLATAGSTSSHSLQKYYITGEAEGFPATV

[2] = system: MCF-7 cells; assay: In vitro cell proliferation assay; format: cell-based, human; details: 0-1000 nM, 6 days, 10% FBS, no additional estrogen
[3] = molecular target: T2, ERα LBD and SRC-1 (Homo sapiens, UniProt P03372); assay: Mammalian two-hybrid assay, ERα LBD - SRC-1 interaction in HeLa cells; format: cell-based; details: 100 nM ligand, GAL-SRC-1 + VP16-ERα-LBD
T2 sequence (P03372 311-547 limits assumed): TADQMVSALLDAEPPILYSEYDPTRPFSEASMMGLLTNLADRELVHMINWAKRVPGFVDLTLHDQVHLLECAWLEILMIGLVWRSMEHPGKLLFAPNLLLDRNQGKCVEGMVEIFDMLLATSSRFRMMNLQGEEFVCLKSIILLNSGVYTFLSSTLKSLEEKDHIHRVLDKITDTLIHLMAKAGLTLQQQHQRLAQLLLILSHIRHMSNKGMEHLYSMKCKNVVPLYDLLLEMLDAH

[4] = molecular target: recombinant human ERβ (Homo sapiens, UniProt Q92731); assay: ERβ radioligand; format: binding; details: RBA = IC50 for E2 / IC50 for the test compound
Chain of recombinant human ERβ (Q92731 whole entry): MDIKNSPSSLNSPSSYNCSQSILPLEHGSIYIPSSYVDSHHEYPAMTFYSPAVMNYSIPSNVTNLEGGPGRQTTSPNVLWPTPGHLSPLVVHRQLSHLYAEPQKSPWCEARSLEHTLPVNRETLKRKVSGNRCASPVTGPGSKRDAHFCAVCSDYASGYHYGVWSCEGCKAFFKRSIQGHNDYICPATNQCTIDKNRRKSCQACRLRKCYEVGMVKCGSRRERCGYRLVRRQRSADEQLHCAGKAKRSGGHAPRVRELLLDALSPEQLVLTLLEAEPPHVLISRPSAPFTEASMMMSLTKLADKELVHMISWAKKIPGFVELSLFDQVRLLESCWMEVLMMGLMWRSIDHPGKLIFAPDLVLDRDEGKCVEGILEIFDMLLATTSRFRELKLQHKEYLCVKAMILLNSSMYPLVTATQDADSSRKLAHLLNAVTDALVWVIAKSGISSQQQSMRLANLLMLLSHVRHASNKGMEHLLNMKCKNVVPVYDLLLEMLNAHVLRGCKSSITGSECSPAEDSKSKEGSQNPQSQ

[5] = molecular target: T1, ERα; assay: ERα trans-activation luciferase reporter assay in MCF-7 cells; details: 100 nM derivative, compared with 1 nM E2; ERE-Elb-Luc reporter
[6] = system: MDA-MB-231 cells; assay: In vitro cell proliferation assay; format: cell-based, human; details: 0-1000 nM, 6 days
[7] = molecular target: T1, ERα; assay: ERα trans-activation luciferase reporter assay in HeLa cells; details: for antagonism of E2-stimulated luciferase expression in HeLa cells: in presence of 1 nM E2; for ERα agonist activity in HeLa or MCF-7 cells: 100 nM derivative, pCR3.1-ERα + ERE-Elb-Luc
[8] = system: ERα LBD and CBP CH3 domain; details: prior report ref 16; cited from earlier work
[9] = molecular target: T1, ERα; assay: ERα trans-activation luciferase reporter assay in HepG2 cells

C[C@]12CC[C@@H]3c4ccc(O)cc4C[C@@H](CCCCC#Cc4ccc(-n5cccc5)cc4)[C@H]3[C@@H]1CC[C@@H]2O [J1, 3,17β-bis(hydroxy)-7α-[6-(4-pyrrol-1-yl-phenyl)-hex-5-ynyl]-estra-1,3,5(10)-trien]
ERα RBA [1]: 21.2% | RBA for human ERs [1]: > 20 % of E2 | effect on growth of ER-positive MCF-7 cells [2]: either no effect or a stimulatory effect; also recorded: did not show an appreciable effect | promotion of ERα - SRC-1 coactivator interaction [3]: effectively promoted the interaction

CCOC(=O)C(Cc1ccc(C#CCCCC[C@@H]2Cc3cc(O)ccc3[C@H]3CC[C@]4(C)[C@@H](O)CC[C@H]4[C@H]23)cc1)C(=O)OCC [J8, 2-{4-[6-((7α,17β)-3,17-dihydroxyestra-1,3,5(10)-trien-7-yl)-hex-1-ynyl]-benzyl}-malonic acid diethyl ester]
ERα RBA [1]: 4.7% | ERβ RBA [4]: 5.8% | effect on growth of ER-positive MCF-7 cells [2]: either no effect or a stimulatory effect; also recorded: did not show an appreciable effect | promotion of ERα - SRC-1 coactivator interaction [3]: effectively promoted the interaction | ERα agonist activity (transcription of target gene) in MCF-7 cells [5]: markedly weaker effect

CCOC(=O)CC(=O)c1ccc(C#CCCCC[C@@H]2Cc3cc(O)ccc3[C@H]3CC[C@]4(C)[C@@H](O)CC[C@H]4[C@H]23)cc1 [J5, 3-{4-[6-((7α,17β)-3,17-dihydroxyestra-1,3,5(10)-trien-7-yl)-hex-1-ynyl]-phenyl}-3-oxo-propionic acid ethyl ester]
ERα RBA [1]: 6.2% | ERβ RBA [4]: 4.7% | effect on growth of ER-positive MCF-7 cells [2]: either no effect or a stimulatory effect; also recorded: did not show an appreciable effect | promotion of ERα - SRC-1 coactivator interaction [3]: effectively promoted the interaction

C[C@]12CC[C@@H]3c4ccc(O)cc4C[C@@H](CCCCC#Cc4ccc(CN5CCCCC5)cc4)[C@H]3[C@@H]1CC[C@@H]2O [J6, 3,17β-bis(hydroxy)-7α-[6-(4-piperidin-1-ylmethyl-phenyl)-hex-5-ynyl]-estra-1,3,5(10)-trien]
ERα RBA [1]: 0.9% | RBA for human ERs [1]: approximately 1 % of E2 | effect on growth of ER-positive MCF-7 cells [2]: either no effect or a stimulatory effect; also recorded: did not show an appreciable effect | promotion of ERα - SRC-1 coactivator interaction [3]: effectively promoted the interaction | ERα agonist activity (transcription of target gene) in MCF-7 cells [5]: markedly weaker effect

CC(C)(C)OC(=O)N1CCN(c2ccc(C#CCCCC[C@@H]3Cc4cc(O)ccc4[C@H]4CC[C@]5(C)[C@@H](O)CC[C@H]5[C@H]34)cc2)CC1 [J4, 4-{4-[6-((7α,17β)-3,17-dihydroxyestra-1,3,5(10)-trien-7-yl)-hex-1-ynyl]-phenyl}-piperazine-1-carboxylic acid tert-butyl ester]
ERα RBA [1]: 1.1% | RBA for human ERs [1]: approximately 1 % of E2 | ERβ RBA [4]: 2.0% | effect on growth of ER-positive MCF-7 cells [2]: concentration-dependent inhibition | effect on growth of ER-negative MDA-MB-231 cells [6]: no appreciable effect; also recorded: did not show an appreciable effect | promotion of ERα - SRC-1 coactivator interaction [3]: did not induce significant SRC-1 binding | antagonism of E2-stimulated luciferase expression in HeLa cells [7]: less effective inhibitors | ERα agonist activity (transcription of target gene) in MCF-7 cells [5]: very poor agonists

C[C@]12CC[C@@H]3c4ccc(O)cc4C[C@@H](CCCCCCCCC[S+]([O-])CCCC(F)(F)C(F)(F)F)[C@H]3[C@@H]1CC[C@@H]2O (stereo partly shown) [ICI-182,780, fulvestrant]
promotion of ERα interaction with CBP coactivator [8]: strongly promote ERα interaction with the CBP coactivator

C[C@]12CC[C@@H]3c4ccc(O)cc4C[C@@H](CCCCC#Cc4ccc(-c5ccno5)cc4)[C@H]3[C@@H]1CC[C@@H]2O [J3, 3,17β-bis(hydroxy)-7α-[6-(4-Isoxazol-5-yl-phenyl)-hex-5-ynyl]-estra-1,3,5(10)-trien]
RBA for human ERs [1]: approximately 1 % of E2 | effect on growth of ER-positive MCF-7 cells [2]: concentration-dependent inhibition | effect on growth of ER-negative MDA-MB-231 cells [6]: no appreciable effect; also recorded: did not show an appreciable effect | promotion of ERα - SRC-1 coactivator interaction [3]: did not induce significant SRC-1 binding | ERα agonist activity in HeLa or MCF-7 cells [7]: poor agonists | antagonism of E2-stimulated luciferase expression in HeLa cells [7]: less effective inhibitors | ERα agonist activity (transcription of target gene) in MCF-7 cells [5]: very poor agonists | agonist activity in HepG2 cells relative to E2 [9]: approximately 50 % of the agonist activity of E2

C[C@]12CC[C@@H]3c4ccc(O)cc4C[C@@H](CCCCC#Cc4ccc5ccccc5c4)[C@H]3[C@@H]1CC[C@@H]2O [J2, 3,17β-bis(hydroxy)-7α-(6-naphthalen-2-yl-hex-5-ynyl)-estra-1,3,5(10)-trien]
ERα RBA [1]: 3.4% | effect on growth of ER-positive MCF-7 cells [2]: either no effect or a stimulatory effect; also recorded: did not show an appreciable effect | promotion of ERα - SRC-1 coactivator interaction [3]: effectively promoted the interaction

C[C@]12CC[C@@H]3c4ccc(O)cc4C[C@@H](CCCCc4cn(CC5COc6ccccc6O5)nn4)[C@H]3[C@@H]1CC[C@@H]2O (stereo partly drawn) [J9, 3,17β-bis(hydroxy)-7α-{4-[1-(2,3-Dihydro-1,4-benzodioxin-2-ylmethyl)-1H-1,2,3-triazol-4-yl]-butyl}-estra-1,3,5(10)-trien]
ERα RBA [1]: 24.6% | RBA for the human ERα ([1]; stated in docking discussion): 24.6 % of E2 | RBA for human ERs [1]: > 20 % of E2 | ERβ RBA [4]: 21.1% | effect on growth of ER-positive MCF-7 cells [2]: concentration-dependent inhibition | promotion of ERα - SRC-1 coactivator interaction [3]: did not induce significant SRC-1 binding | ERα agonist activity in HeLa or MCF-7 cells [7]: poor agonists | antagonism of E2-stimulated luciferase expression in HeLa cells [7]: strongest antagonists | ERα agonist activity (transcription of target gene) in MCF-7 cells [5]: no agonist activity | agonist activity in HepG2 cells relative to E2 ([9]; 100 nM derivative, normalized to 1 nM E2, pCR3.1-ERα + ERE-Elb-Luc): approximately 50 % of the agonist activity of E2

C[C@]12CC[C@@H]3c4ccc(O)cc4C[C@@H](CCCCc4cn(-c5cc6ccc(O)cc6oc5=O)nn4)[C@H]3[C@@H]1CC[C@@H]2O [J7, 3-{4-[4-((7α,17β)-3,17-dihydroxyestra-1,3,5(10)-trien-7-yl)-butyl]-1,2,3-triazol-1-yl}-7-hydroxy-1-benzopyran-2-one]
effect on growth of ER-positive MCF-7 cells [2]: concentration-dependent inhibition | promotion of ERα - SRC-1 coactivator interaction [3]: did not induce significant SRC-1 binding | antagonism of E2-stimulated luciferase expression in HeLa cells [7]: strongest antagonists | ERα agonist activity (transcription of target gene) in MCF-7 cells [5]: no agonist activity
